# “Also recorded” adds a separate entry of the source.
# How the values were obtained:
# Assay type in all cases: cell-based
# [1] = tested on: AKT phosphorylation (S473); assay: Immunoblot analysis of AKT phosphorylation in cancer cells; settings: for AKT phosphorylation: two days; for AKT phosphorylation (S473): ZPP 400 μM or Y29794 1 μM; for rapamycin-induced increase in phosphorylation of AKT: rapamycin 10 nM plus ZPP 200 μM or Y29794 0.5 μM, 24 hours
# Method: (§1) 2.2 Immunoblot analysis of gene silencing of PRCP or PREP in cancer cells. Mouse anti-PRCP antibody was purchased from Abcam (Cambridge, Mass., USA). Goat anti-PREP antibody was purchased from R&D Systems (Minneapolis, Minn., USA). Mouse anti-R-actin antibody antibodies was from Santa Cruz Biotechnology (Santa Cruz, Calif., USA). Panc-1 pancreatic cancer cells and MCF7 breast cancer cells were cultured to 80% confluence, cells were rinsed three times with pre-cooled PBS, 500 μl of lysis buffer (150 mmol/L Nacl, 1% Triton-x-100, 50 mmol/l TrispH8.0, 1 mmol/L PMSF, 1 ug/L aprotinin, 1 ug/L leupeptin, 1 ug/L peptain) was added to the cells. Cells were scraped and transferred to a centrifuge tube with a pipette. The lysates were spun in a microcentrifuge at maximal speed for 10 minutes at 4° C. to get rid of the insoluble fraction. Protein concentration was determined by Bradford assay. For immunoprecipitation: 2-5 ug protein-specific antibodies were added to 250-500 ug of lysates in a tube and incubated on an ordital shaker 4° C. for 2-4 hours with moderate shaking, then 20 ul Protein G beads (Santa Cruz Biotechnology (Santa Cruz, Calif., USA.) were added and the mixture was incubated with moderate shaking for another hour. After washing the beads in lysis buffer five times, the immunoprecipitates were boiled in 2× Laemmli sample buffer (50 mmoL/L Tris-HCL (pH8.0), 100 mmoL/L DTT, 2% SDS, 0.1% bromophenol blue, 10% glycerol) for five minutes. The proteins were separated by conventional SDS-polyacrylamide gel electrophoresis (SDS-PAGE) electrophoresis and transferred to Amersham Hybond-P PVDF membrane (GE Company, Pittsburgh, Pa., USA). For immunoblot, the membrane was blocked in 2% BSA in TBST buffer (Tris 1.21 g+NaCl 5.84 g+800 ml H2O adjusted to pH 8.0 with HCl) for one hour and then incubated with primary antibodies in TBST at room temperature (22-25° C.) for 2 hours. After washing three times with TBST, the membrane was incubated with HRP-conjugated secondary antibodies for 0.5 hours at room temperature. After washing the membrane five times with TBST (5 minutes/each), the membrane was incubated with ECL chromogenic reagent (GE Company, Pittsburgh, Pa., USA) for 1-5 minutes. The blots were exposed to films in darkroom for 1-5 minute. The films were developed in an automatic X-OMAT Developer (KODAK, Rochester, N.Y., USA). […] PREP gene silencing (PREP KD) or PRCP gene silencing (PRCP KD) or gene silencing both PRCP and PREP (DKD) in MCF7 cells reduces expression of PREP and/or PRCP proteins compared with control cells (control) (FIGS. 6B & 6C).
# 3.1 Reduction in AKT phosphorylation is examined by immunoblot using rabbit anti-phospho-AKT […] and rabbit anti-pan AKT antibodies purchased from Cell Signaling Technology (Danvers, Mass., USA) in the cells with gene silencing of PRCP and/or PREP or treated with ZPP or Y29794. Reduction in PRCP and/or PREP is shown by Western blot and quantitative PCR described in 2.2.
# IRS-1 [2] = assay: Immunoblot analysis of IRS-1 (protein, phosphorylation, half-life, p85 coimmunoprecipitation)
# IRS-1 [3] = assay: as above; settings: for rapamycin-induced increase in IRS-1: rapamycin 10 nM plus ZPP 200 μM or Y29794 0.5 μM, 24 hours
# Method: as §1
# 3.2 AKT phosphorylation was examined by immunoblot as described in 3.1. IRS-1 expression was analyzed by immunoblot using anti-IRS-1 antibodies purchased from Santa Cruz Biotechnology (Santa Cruz, Calif., USA). Reduction in PRCP and/or PREP by gene silencing is shown by Western blot and quantitative PCR described in 2.2.
# 3.4 ZPP or Y29794 inhibits IRS-1 tyrosine phosphorylation and p85 PI3K subunit interaction with IRS-1 and PI3K kinase activity. Panc-1 cells were treated with ZPP (200 μM) or Y29794 (0.5 μM) for 24 hours. Lysates were immunoprecipitated with anti-IRS-1 antibodies and the anti-IRS-1 immunoprecipitates were used for PI3K kinase assay and anti-IRS-1 phospho-tyrosine and anti-p85 immunoblot analysis (FIG. 13). ZPP or Y29794 decreased IRS-1-associated PI3K activity (FIG. 13, upper) and tyrosine phosphorylation of IRS-1 and p85 (FIG. 13, lower).
# As described in Example 2.2 and above, the cells with PRCP and PREP gene silencing were used for analysis of PRCP and PREP gene silencing and inhibition of serine phosphorylation and degradation of IRS-1 and its effects on response to rapamycin. […] Compared to control cells, DKD cells show […] serine phosphorylation (S307 and S636/639) of IRS-1 alongside with decreased tyrosine phosphorylation of IRS-1 (FIG. 18B). […]
# PI3K = PI3K kinase assay in anti-IRS-1 immunoprecipitates; settings: Panc-1, 24 hours; ZPP 200 μM, Y29794 0.5 μM or rapamycin alone
# Method: PI3K kinase assay kit (Calbiochem, Bilerica, Mass., USA) was used to measure the IRS-1-associated or p85-associated PI3K kinase activity in cells. The indicated cells were treated with different conditions for 24 hours. The cells were rinsed three times with pre-cooled PBS, lysed in 500 μl of lysis buffer (150 mmol/L Nacl, 1% Triton-x-100, 50 mmol/1 Tris (pH8.0, 1 mmol/L PMSF, 1 μg/L aprotinin, 1 μg/Lleupeptin, 1 μg/L peptain). Cell lysates (500 μg, in triplicate) of were used for anti-IRS-1 or anti-p85 immunoprecipitation. The immunoprecipitates were resuspended in 200 μl assay buffer and mixed with the fluorescence-labeled PI3K substrate BODIPY-TMR-phosphatidylinositol (100 μM) and ATP (37° C.) for 1 hour. The fluorescence intensity was measured with a fluorometer (excitation wavelength of 540 nm, emission wavelength […]). The difference between fluorescence intensity between control immunoprecipitates (no lysates) and lysate immunoprecipitates was used to indicate PI3K kinase activity. IR-1 anti-rabbit antibody and rabbit anti-PI3K p85 antibody were purchased from Millipore Corporation (Billerica, Mass., USA). Panc-1 anti-p85 immunoprecipitates were used for PI3K kinase assay (FIG. 12) and immunoblot analysis (FIG. 12). Rapamycin treatment in control cells increased PI3K kinase activity (P<0.01). […]
# [4] = Panc-1, 24 hours, ZPP 200 μM or Y29794 0.5 μM
smiles,measurement,setting,value
"CC(C)c1ccc(C(=O)c2cccs2)c(SCCCCCCCCN(C)C)n1 [Y29794, [2-[8-(dimethylamino)octylsulfanyl]-6-propan-2-ylpyridin-3-yl]-thiophen-2-ylmethanone]",AKT phosphorylation,"[1]; MCF7, Y29794 0.5 μM, vs vehicle (ethanol)",significantly decreased
same,AKT phosphorylation (S473),"[1]; MCF7, vs vehicle (FIG. 8B, 8E legend)",reduced
same,rapamycin-induced increase in phosphorylation of AKT,[1]; MCF7,blocked
same,AKT phosphorylation,"[1]; PK-9, ZPP 200 μM or Y29794 0.5 μM, vs vehicle",significantly decreased
same,AKT phosphorylation (S473),"[1]; PK-9, vs vehicle (FIG. 8A, 8F legend)",reduced
same,AKT phosphorylation,"[1]; Panc-1, ZPP 200 μM or Y29794 0.5 μM, vs vehicle",significantly decreased
same,phosphorylated AKT (S473),"[1]; Panc-1, ZPP 400 μM alone (FIG. 10A legend) or Y29794 0.5 μM alone (FIG. 11A legend)",reduced
same,AKT phosphorylation (S473),"[1]; Panc-1, vs vehicle (FIG. 8C, 8D legend)",reduced
same,rapamycin-induced increase in phosphorylation of AKT,[1]; Panc-1,blocked
same,IRS-1 protein,"IRS-1 [2]; Capan-1, Y29794 1 μM (FIG. 19A)",reduces
same,IRS-1 protein,"IRS-1 [2]; PK-9, Y29794 1 μM (FIG. 19A)",reduces
same,rapamycin-induced increase in IRS-1,IRS-1 [3]; MCF7,blocked
same,p85 coimmunoprecipitated with IRS-1,IRS-1 [3]; [4],reduces; also recorded: decreased
same,tyrosine phosphorylation of IRS-1 in anti-IRS-1 immunoprecipitates,IRS-1 [3]; [4],reduces; also recorded: decreased
same,IRS-1 protein,"IRS-1 [3]; Panc-1, Y29794 1 μM (FIG. 19A, 19B)",reduces; also recorded: significantly reduced
same,serine phosphorylation (S307 and S636/639) of IRS-1,"IRS-1 [3]; Panc-1, Y29794 1 μM (FIG. 19B)",induces; also recorded: increased
same,rapamycin-induced increase in IRS-1 protein,"IRS-1 [3]; Panc-1, Y29794 1 μM with rapamycin (FIG. 19D)",inhibits; also recorded: not increased nor stabilized
same,rapamycin-induced increase in IRS-1,IRS-1 [3]; Panc-1,blocked
same,IRS-1-associated PI3K activity,PI3K,reduce; also recorded: decreased
